These results are taken from ChEMBL document CHEMBL1201862, “PubChem BioAssay data set” (2004).

Holding throughout (assay): growth of human tumour cells (NCI), 48 h
In assay [1] the test system is CAKI-1.
Assay [2] has as its system Hs-578T.
For assay [3], the system named is IGROV-1.
Assay [4] deals with LOX IMVI.
The subject of assay [5] is MDA-MB-231.
Assay [6] has as its system Malme-3M.
For assay [7], the system named is NCI-H23.
Assay [8] deals with NCI-H460.
Assay [9] concerns NCI/ADR-RES.
Assay [10] concerns OVCAR-3.
For assay [11], the system named is PC-3.
The subject of assay [12] is SF-295.
For assay [13], the system named is SK-MEL-2.
The subject of assay [14] is SK-OV-3.
Assay [15] has as its system UACC-62.
Assay [16] relates to A549.
Assay [17] has as its system EKVX.
Assay [18] relates to HCC 2998.
Assay [19] relates to M14.
Assay [20] concerns RPMI-8226.

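Method: 48-hour compound exposure of cells in 96-well plates, five concentrations, linear interpolation of endpoints. At the GI50, growth is halved.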 Calls of active or inactive are those of the source. Cut-off read from the data, not from the text of the source: active = GI50 up to about 1.1 µM and inactive = higher. Some results are limits rather than exact numbers.

Regarding `O=C1Nc2ccc(Br)cc2/C1=N/NC(=S)Nc1ccc([N+](=O)[O-])cc1`, the GI50 was 4.06 µM (inactive) in [1]; 14.2 µM (inactive) in assay [2]; 5.08 µM (inactive) in assay [3]; 8.81 µM (inactive) in assay [4]; 16.7 µM (inactive) in assay [5]; 5.98 µM (inactive) in assay [6]. The GI50 in [7] was 2.55 µM (inactive); in [8] it was 5.47 µM (inactive); in assay [9], 2.01 µM (inactive); in [10], 6.65 µM (inactive); in assay [11], 7.13 µM (inactive); in [12] it was 6.08 µM (inactive). In addition, the values for the GI50 in assay [13], in assay [14] and in assay [15] were 13.7 µM (inactive), 12.7 µM (inactive) and 5.5 µM (inactive), respectively.
`CNC(=S)N/N=C(\C(=N/NC(=S)NC)c1ccccn1)c1ccccn1`: the GI50 in [16] is 5.74 µM (inactive); in assay [1], 5.04 µM (inactive); in assay [17] it was 1.63 µM (inactive); in assay [18] it was > 23 µM (inactive); in assay [2], 5.38 µM (inactive); in assay [3], 0.759 µM (active). The GI50 in assay [4] is 4.82 µM (inactive); in assay [19], 2.14 µM (inactive); in [6], 4.73 µM (inactive); in assay [7] it was 9.12 µM (inactive); in [8], 0.348 µM (active); in assay [9], < 0.02 µM (active). Besides, the GI50 was 0.31 µM (active) in [10]; 1.03 µM (active) in assay [11]; 32.8 µM (inactive) in [20]; 3.15 µM (inactive) in assay [12]; 14.3 µM (inactive) in assay [13]; 0.726 µM (active) in assay [14]. Moreover, the GI50 in [15] is 4.59 µM (inactive).
As to `CCOC(=O)C(C(=O)OCC)C(=O)c1ccccc1C(=O)c1ccccc1`, the GI50 is > 100 µM (inactive) in [16]; > 100 µM (inactive) in assay [1]; 26.1 µM (inactive) in assay [17]; > 100 µM (inactive) in assay [18]; 84.7 µM (inactive) in assay [2]; > 100 µM (inactive) in assay [3]. The GI50 in [4], in assay [19], in [5], in assay [6], in [7] and in assay [8] was > 100 µM (inactive) each time. The GI50 in assay [9] is > 100 µM (inactive); in assay [10], 74 µM (inactive); in assay [12] it was > 100 µM (inactive); in assay [13] it was > 100 µM (inactive); in [14], > 100 µM (inactive); in [15] it was > 100 µM (inactive).
Turning to `CC(=O)OC1COC(Nn2c(=O)[nH]c3ccccc3c2=O)C(OC(C)=O)C1OC(C)=O` (configuration not stated), the GI50 was > 100 µM (inactive) in [16]; > 100 µM (inactive) in assay [1]; 36.1 µM (inactive) in [17]; 13.6 µM (inactive) in assay [2]; > 100 µM (inactive) in assay [3]; > 100 µM (inactive) in assay [4]. The GI50 was > 100 µM (inactive) in assay [19]; > 100 µM (inactive) in [5]; > 100 µM (inactive) in assay [7]; > 100 µM (inactive) in assay [8]; 17.9 µM (inactive) in assay [9]; > 100 µM (inactive) in [10]. In addition, the GI50 in assay [11], in [20], in assay [12], in assay [13], in assay [14] and in [15] was > 100 µM (inactive) in each case.
Turning to `CC1(C)CNCC(C)(OCc2ccccc2)C(=O)NC(C)(C)CNCC(C)(OCc2ccccc2)C(=O)N1` (configuration not stated), the GI50 in assay [16] was > 10 µM (inactive); in assay [17], > 10 µM (inactive); in assay [18], > 10 µM (inactive); in assay [2], 5.09 µM (inactive); in assay [3], > 10 µM (inactive); in [4], > 10 µM (inactive). The GI50 in assay [19], in assay [5], in assay [6], in assay [7], in assay [8] and in assay [10] was > 10 µM (inactive) each time. Further, the GI50 in assay [11], in [12], in [13], in assay [14] and in assay [15] was > 10 µM (inactive) in each case.
For `COc1cc(/C=N/c2ccccn2)cc(OC)c1OC`, the GI50 in assay [16], in [1], in assay [17], in [18], in assay [2] and in [3] was > 100 µM (inactive) throughout. The GI50 in assay [4], in assay [19], in assay [5], in assay [6], in assay [7] and in assay [8] was > 100 µM (inactive) each time. Besides, the GI50 in assay [9] is > 100 µM (inactive); in assay [10] it was > 100 µM (inactive); in [20], 65 µM (inactive); in assay [12], > 76.9 µM (inactive); in assay [13], > 100 µM (inactive); in assay [14], > 63.8 µM (inactive). The GI50 in assay [15] is > 100 µM (inactive).
On to `CC(=S)NC1C(Oc2ccc3c(C)cc(=O)oc3c2)OC(CO)C(O)C1O` (configuration not stated), for which the GI50 in assay [16], in [1], in assay [17], in assay [2], in assay [3] and in [4] was > 100 µM (inactive) throughout. Further, the GI50 in assay [5], in assay [8], in [9], in [10], in assay [11] and in assay [20] was > 100 µM (inactive) in each case. Also, the GI50 in assay [12], in [13], in [14] and in assay [15] was > 100 µM (inactive) in each case.
For the compound `COc1c(OC)c(OC)c(-c2cc(=O)c3c(OC)c(OC)c(OC)c(OC)c3o2)c(OC)c1OC`, the GI50 in assay [16] was 35 µM (inactive); in assay [1], 43.4 µM (inactive); in assay [17], 59.8 µM (inactive); in [18] it was 28.7 µM (inactive); in assay [2], 52.5 µM (inactive); in [3], 25.5 µM (inactive). The GI50 was 30.9 µM (inactive) in assay [4]; 44 µM (inactive) in assay [19]; 29.9 µM (inactive) in [5]; 47 µM (inactive) in [6]; 22.2 µM (inactive) in assay [7]; 31.3 µM (inactive) in [8]. Moreover, the GI50 was 23.9 µM (inactive) in [9]; 16.3 µM (inactive) in assay [10]; 60.8 µM (inactive) in assay [20]; 40.2 µM (inactive) in assay [12]; 56.6 µM (inactive) in [13]; 71.1 µM (inactive) in assay [14]. Moreover, the GI50 in assay [15] was 34.3 µM (inactive).
For the compound `COc1c2c(cc3c1-c1c(cc4c(c1OC)OCO4)C1OC3C(C)C1C)OCO2.COc1cc2c(c(OC)c1OC)-c1c(cc3c(c1OC)OCO3)C1OC2C(C)C1C` (configuration not stated), the GI50 in [16] is 97.5 µM (inactive); in assay [1] it was > 100 µM (inactive); in [17] it was 87.3 µM (inactive); in [18] it was 56.4 µM (inactive); in assay [2] it was > 100 µM (inactive); in assay [3], 70.6 µM (inactive). Also, the GI50 is 68.4 µM (inactive) in assay [4]; > 100 µM (inactive) in assay [19]; 8 µM (inactive) in [5]; > 100 µM (inactive) in assay [6]; > 100 µM (inactive) in assay [7]; 55.3 µM (inactive) in [8]. In addition, the GI50 in [10] was 84.5 µM (inactive); in assay [11], 37.8 µM (inactive); in assay [20], 33 µM (inactive); in assay [12], 87.1 µM (inactive); in assay [13], > 100 µM (inactive); in assay [14], > 100 µM (inactive). For the same compound, in [15], the GI50 was 73.8 µM (inactive).
For the compound `COc1cccc(/C=C2\CCCCCC2=O)c1`, the GI50 in [16], in assay [1], in [17], in assay [18], in assay [2] and in assay [3] was > 100 µM (inactive) in each case. For the same compound, the GI50 in assay [4] is > 100 µM (inactive); in assay [19], > 100 µM (inactive); in [5] it was > 100 µM (inactive); in [6], > 100 µM (inactive); in assay [7] it was > 100 µM (inactive); in [8] it was 52 µM (inactive). The GI50 in assay [10] is > 100 µM (inactive); in assay [11], > 100 µM (inactive); in assay [20], 31 µM (inactive); in assay [12] it was > 100 µM (inactive); in [13], > 100 µM (inactive); in assay [14], > 100 µM (inactive). In addition, the GI50 in assay [15] is > 100 µM (inactive).
For `O=C1C(Cl)=C(NCCF)C(=O)c2ncccc21`, the GI50 was 1.89 µM (inactive) in [16]; 1.68 µM (inactive) in assay [17]; 1.36 µM (inactive) in assay [18]; 1.83 µM (inactive) in assay [2]; 1.95 µM (inactive) in [3]; 0.724 µM (active) in [4]. Also, the GI50 in assay [19] was 1.61 µM (inactive); in assay [5] it was 1.9 µM (inactive); in assay [6], 1.57 µM (inactive); in assay [7], 1.6 µM (inactive); in assay [8], 1.65 µM (inactive); in assay [10], 2.03 µM (inactive). The GI50 in assay [11] was 1.58 µM (inactive); in assay [20], 7.08 µM (inactive); in [12] it was 1.75 µM (inactive); in [13] it was 1.68 µM (inactive); in assay [14], 2.29 µM (inactive); in assay [15], 0.977 µM (active).
